This assay concerns the target T1, PPARα (Homo sapiens, UniProt Q07869).
T1 construct: 20 nM PPARα LBD GST fused (Thermo Scientific); purchased Thermo Scientific
T1 sequence (Q07869 239-466 limits assumed): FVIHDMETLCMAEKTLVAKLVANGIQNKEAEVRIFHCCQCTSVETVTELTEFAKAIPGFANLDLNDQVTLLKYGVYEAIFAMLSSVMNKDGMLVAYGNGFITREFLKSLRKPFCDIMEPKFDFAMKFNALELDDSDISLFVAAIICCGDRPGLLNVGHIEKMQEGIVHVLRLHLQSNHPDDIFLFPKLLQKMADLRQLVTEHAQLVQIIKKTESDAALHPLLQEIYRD
Kind of assay: AlphaScreen coactivator (SRC-1) recruitment assay on PPARα. The format is biochemical. As to conditions: AlphaScreen SRC-1 recruitment; compounds at 50 µM (footnote); fenofibrate = 100%. The method, then: Compounds’ ability to mediate cofactor recruitment was evaluated by employing AlphaScreen GST Detection Kit (PerkinElmer). Particularly, FXR agonism was evaluated employing 10 nM FXR-LBD GST-fused (Thermo Scientific) and 30 nM of biotinylated SRC1 peptide ([…]) in the presence of 20 μg/mL donor and acceptor beads and in buffer containing 50 mM Tris-HCl (pH7.4), 20 mM KCl, 1 mM DTT, and 0.1% BSA. For PPARα assay, a buffer containing 50 mM MOPS, 50 mM NaF, 0.05 mM CHAPS, and 0.05% BSA (pH = 7.4) was used, and 20 nM PPARα LBD GST fused (Thermo Scientific) and 60 nM of biotinylated SRC1 peptide were employed. Both acceptor and donor beads were added to reach 20 μg/mL final concentration. Incubations were performed in a final volume of 25 μL employing 384 wells Optiplate and Alpha signal was measured with Envision 2,105 (Perkin Elmer) multimode plate reader. […]

SMILES strings stand for the structures. Values joined by “and” are separate entries in the source; they are usually repeats but may differ in a detail not shown here. Equal entries are not always repeated.

Take `CC[C@H]1[C@@H](O)[C@@H]2[C@H](CC[C@]3(C)[C@@H]([C@H](C)CCO)CC[C@@H]23)[C@@]2(C)CC[C@@H](O)C[C@@H]12` [BAR502, 6α-ethyl-3α,7α-dihydroxy-24-nor-5β-cholan-23-ol]: the “PPARα efficacy (% vs. fenofibrate)” value is 36% and 36 ± 12%.

The values are drawn from publication PMC11289669, “BAR502/fibrate conjugates: synthesis, biological evaluation and metabolic profile” (Frontiers in Chemistry, 2024).
